Assay results: patent US9510592B2, “Pesticidal compositions and processes related thereto” (Dow AgroSciences LLC, priority 2012, dated 2016)

Assays:
[1] = tested on: Beet Armyworm (Spodoptera exigua); assay: Bioassay on Beet Armyworm (BAW), 128-well diet tray assay; assay type: in vivo; conditions: percent mortality of second instar larvae, 50 μg/cm^2 on artificial diet, five to seven days, 25° C., Table 3; for pest or weed control at 50 µg/cm2, 50 µg/cm2: Spodoptera exigua, 168 h, read-out: BAW Rating
Method in brief: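 Second-instar larvae (one to five per well) were placed on artificial diet surface-treated with 50 μg/cm^2 compound in acetone-water and held at 25 °C, 14:10 light-dark, for five to seven days. Percent mortality was averaged over eight wells.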

[2] = tested on: Corn Earworm (Helicoverpa zea); assay: Bioassay on Corn Earworm (CEW), 128-well diet tray assay; assay type: in vivo; conditions: percent mortality of second instar larvae, 50 μg/cm^2 on artificial diet, five to seven days, 25° C., Table 3; for pest or weed control at 50 µg/cm2: Helicoverpa zea, 168 h, read-out: CEW Rating
Protocol: Certain molecules disclosed in this document were tested against BAW and CEW and CL using procedures described in the following examples. In the reporting of the results, the “BAW & CEW & CL Rating Table” was used (See Table Section).
Bioassays On CEW (Helicoverpa zea)
Bioassays on CEW were conducted using a 128-well diet tray assay. one to five second instar CEW larvae were placed in each well (3 mL) of the diet tray that had been previously filled with 1 mL of artificial diet to which 50 μg/cm^2 of the test compound (dissolved in 50 μL of 90:10 acetone-water mixture) had been applied (to each of eight wells) and then allowed to dry. Trays were covered with a clear self-adhesive cover, and held at 25° C., 14:10 light-dark for five to seven days. Percent mortality was recorded for the larvae in each well; activity in the eight wells was then averaged. The results are indicated in the table entitled “Table 3: Assay Results” (See Table Section).

SMILES	pest or weed control at 50 µg/cm2, 50 µg/cm2 [1] [%]	pest or weed control at 50 µg/cm2 [2] [%]	BAW Rating [1]	also measured
Cc1cc(/C=C/C(c2cc(Cl)cc(Cl)c2)C(F)(F)F)ccc1C(=O)NCc1cccnc1 (stereo not shown) [AC14]	50 to 100	0 to 50	–	–
Cc1cc(/C=C/C(c2cc(Cl)c(Cl)c(Cl)c2)C(F)(F)F)ccc1C(=O)NC1CS(=O)(=O)C1 (stereo not shown) [AC25]	50 to 100	50 to 100	–	–
O=C(NCc1ccc(Cl)nc1)c1ccc(/C=C/C(c2cc(Cl)cc(Cl)c2)C(F)(F)F)cc1Br (stereo not shown) [AC46]	50 to 100	50 to 100	–	–
CCc1cc(/C=C/C(c2cc(Cl)c(F)c(Cl)c2)C(F)(F)F)ccc1C(=O)NCc1cccnc1Cl (stereo not shown) [AC76]	50 to 100	50 to 100	–	–
O=C(NC1CCN(CC(F)(F)F)CC1)c1ccc(/C=C/C(c2cc(Cl)c(Cl)c(Cl)c2)C(F)(F)F)cc1Br (stereo not shown) [AC105, (E)-2-Bromo-4-(4,4,4-trifluoro-3-(3,4,5-trichlorophenyl)but-1-en-1-yl)-N-(1-(2,2,2-trifluoroethyl)piperidin-4-yl)benzamide]	50 to 100	50 to 100	–	–
CN(C)NC(=O)CNC(=O)c1ccc(/C=C/C(c2cc(Cl)c(Cl)c(Cl)c2)C(F)(F)F)cc1Br (stereo not shown) [AC112]	50 to 100	50 to 100	–	–
CNC(=S)NC1CCc2cc(/C=C/C(c3cc(Cl)c(Cl)c(Cl)c3)C(F)(F)F)ccc21 (stereo not shown) [BC1, (E)-1-Methyl-3-(5-(4,4,4-trifluoro-3-(3,4,5-trichlorophenyl)-but-1-enyl)-2,3-dihydro-1H-inden-1-yl)thiourea]	50 to 100	50 to 100	–	–
CCNC(=S)NC1CCc2cc(/C=C/C(c3cc(Cl)c(Cl)c(Cl)c3)C(F)(F)F)ccc21 (stereo not shown) [BC2]	50 to 100	50 to 100	–	–
C=CCNC(=S)NC1CCc2cc(/C=C/C(c3cc(Cl)c(Cl)c(Cl)c3)C(F)(F)F)ccc21 (stereo not shown) [BC3]	50 to 100	50 to 100	–	–
O=C(NCc1ccc(/C=C/C(c2cc(Cl)c(Cl)c(Cl)c2)C(F)(F)F)cc1Cl)Oc1ccccc1Cl (stereo not shown) [CC40]	–	–	–	CEW Rating [2]: A (50-100)
FC(F)(F)C(/C=C/c1ccc(-n2cncn2)cc1)c1ccc(Cl)cc1Cl (stereo not shown) [DC13]	50 to 100	50 to 100	–	–
FC(F)(F)C(/C=C/c1ccc(-n2cncn2)cc1)c1cc(Cl)cc(Cl)c1Cl (stereo not shown) [DC17]	50 to 100	50 to 100	–	–
FC(F)(F)C(/C=C/c1ccc(-n2cncn2)cc1)c1cc(Cl)c(Cl)c(Cl)c1 (stereo not shown) [DC18]	50 to 100	50 to 100	–	–
FC(F)(F)c1cc(Cl)cc(C(/C=C/c2ccc(-n3cncn3)cc2)C(F)(F)F)c1 (stereo not shown) [DC19]	50 to 100	50 to 100	–	–
COc1c(Cl)cc(C(/C=C/c2ccc(-n3cncn3)cc2)C(F)(F)F)cc1Cl (stereo not shown) [DC20]	–	–	A (50-100)	–
N#Cc1cc(/C=C/C(c2cc(Cl)cc(Cl)c2)C(F)(F)F)ccc1-n1cncn1 (stereo not shown) [DC29]	50 to 100	50 to 100	–	–
N#Cc1cc(/C=C/C(c2cc(C(F)(F)F)cc(C(F)(F)F)c2)C(F)(F)F)ccc1-n1cncn1 (stereo not shown) [DC30]	50 to 100	50 to 100	–	–
N#Cc1cc(/C=C/C(c2cc(Cl)cc(C(F)(F)F)c2)C(F)(F)F)ccc1-n1cncn1 (stereo not shown) [DC33]	–	–	A (50-100)	–
COc1c(Cl)cc(C(/C=C/c2ccc(-n3cncn3)c(C#N)c2)C(F)(F)F)cc1Cl (stereo not shown) [DC34]	–	–	A (50-100)	–
N#Cc1cc(/C=C/C(c2cc(Cl)c(F)c(Cl)c2)C(F)(F)F)ccc1-n1cncn1 (stereo not shown) [DC35]	–	–	A (50-100)	–
N#Cc1cc(/C=C/C(c2cc(Cl)cc(Cl)c2)C(F)(F)F)ccc1-n1cnc([N+](=O)[O-])n1 (stereo not shown) [DC37]	–	–	A (50-100)	–
N#Cc1cc(/C=C/C(c2cc(Cl)cc(Cl)c2)C(F)(F)F)ccc1-n1cnc(N)n1 (stereo not shown) [DC38]	–	–	A (50-100)	–

SMILES	pest or weed control at 50 µg/cm2, 50 µg/cm2 [1] [%]	pest or weed control at 50 µg/cm2 [2] [%]	BAW Rating [1]	also measured
CC(=O)Nc1ncn(-c2ccc(/C=C/C(c3cc(Cl)cc(Cl)c3)C(F)(F)F)cc2C#N)n1 (stereo not shown) [DC39]	–	–	A (50-100)	–
N#Cc1cc(/C=C/C(c2cc(Cl)c(Cl)c(Cl)c2)C(F)(F)F)ccc1-n1cnc([N+](=O)[O-])n1 (stereo not shown) [DC40, (E)-2-(3-Nitro-1H-1,2,4-triazol-1-yl)-5-(4,4,4-trifluoro-3-(3,4,5-trichlorophenyl)but-1-en-1-yl)benzonitrile]	–	–	A (50-100)	–
N#Cc1cc(/C=C/C(c2cc(Cl)c(Cl)c(Cl)c2)C(F)(F)F)ccc1-n1cnc(N)n1 (stereo not shown) [DC41, (E)-2-(3-Amino-1H-1,2,4-triazol-1-yl)-5-(4,4,4-trifluoro-3-(3,4,5-trichlorophenyl)but-1-en-1-yl)benzonitrile]	–	–	A (50-100)	–
N#Cc1cc(/C=C/C(c2cc(Cl)c(Cl)c(Cl)c2)C(F)(F)F)ccc1-n1cnc(N(C(=O)C2CC2)C(=O)C2CC2)n1 (stereo not shown) [DC42, (E)-N-(1-(2-Cyano-4-(4,4,4-trifluoro-3-(3,4,5-trichlorophenyl)but-1-en-1-yl)phenyl)-1H-1,2,4-triazol-3-yl)-N-(cyclopropanecarbonyl)cyclopropanecarboxamide]	–	–	A (50-100)	–
N#Cc1cc(/C=C/C(c2cc(Cl)c(Cl)c(Cl)c2)C(F)(F)F)ccc1-n1cnc(NC(=O)C2CC2)n1 (stereo not shown) [DC43, (E)-N-(1-(2-Cyano-4-(4,4,4-trifluoro-3-(3,4,5-trichlorophenyl)but-1-en-1-yl)phenyl)-1H-1,2,4-triazol-3-yl)cyclopropanecarboxamide]	–	–	A (50-100)	–
Cc1cc(/C=C/C(c2cc(Cl)cc(Cl)c2)C(F)(F)F)cc(C#N)c1-n1cncn1 (stereo not shown) [DC44]	–	–	A (50-100)	–
Cc1cc(/C=C/C(c2cc(Cl)c(Cl)c(Cl)c2)C(F)(F)F)cc(C#N)c1-n1cncn1 (stereo not shown) [DC45]	–	–	A (50-100)	–
N#Cc1cc(/C=C\C(c2cc(Cl)c(F)c(Cl)c2)C(F)(F)F)ccc1-n1cncn1 (stereo not shown) [DC46]	–	–	A (50-100)	–
FC(F)(F)C(/C=C/c1ccc(-n2cncn2)c(Br)c1)c1cc(Cl)cc(Cl)c1 (stereo not shown) [DC47]	–	–	A (50-100)	–
Fc1cc(/C=C/C(c2cc(Cl)cc(Cl)c2)C(F)(F)F)ccc1-n1cncn1 (stereo not shown) [DC48]	–	–	A (50-100)	–
FC(F)(F)C(/C=C/c1ccc(-n2cncn2)c(Cl)c1)c1cc(Cl)c(Cl)c(Cl)c1 (stereo not shown) [DC49]	–	–	A (50-100)	–
FC(F)(F)C(/C=C/c1ccc(-n2cncn2)c(Cl)c1)c1cc(Cl)cc(Cl)c1 (stereo not shown) [DC50]	–	–	A (50-100)	–
FC(F)(F)c1cc(/C=C/C(c2cc(Cl)cc(Cl)c2)C(F)(F)F)ccc1-n1cncn1 (stereo not shown) [DC51]	–	–	A (50-100)	–
CNc1cc(/C=C/C(c2cc(Cl)cc(Cl)c2)C(F)(F)F)ccc1-n1cncn1 (stereo not shown) [DC57, (E)-5-(3-(3,5-Dichlorophenyl)-4,4,4-trifluorobut-1-en-1-yl)-N-methyl-2-(1H-1,2,4-triazol-1-yl)aniline]	–	–	A (50-100)	–
CCOC(=O)c1cc(/C=C/C(c2cc(Cl)cc(Cl)c2)C(F)(F)F)ccc1-n1cncn1 (stereo not shown) [DC60]	–	–	A (50-100)	–
Cc1cc(/C=C/C(c2cc(Cl)cc(Cl)c2)C(F)(F)F)ccc1-n1cncn1 (stereo not shown) [DC62]	–	–	A (50-100)	–
Cc1cc(/C=C/C(c2cc(Cl)c(Cl)c(Cl)c2)C(F)(F)F)ccc1-n1cncn1 (stereo not shown) [DC63]	–	–	A (50-100)	–
FC(F)(F)C(/C=C/c1ccc(-n2cncn2)cc1Cl)c1cc(Cl)c(Cl)c(Cl)c1 (stereo not shown) [DC66]	–	–	A (50-100)	–
FC(F)(F)C(/C=C/c1ccc(-n2cncn2)cc1Cl)c1cc(Cl)cc(Cl)c1 (stereo not shown) [DC67]	–	–	A (50-100)	–
C/C(=C\C(c1cc(Cl)cc(Cl)c1)C(F)(F)F)c1ccc(-n2cncn2)cc1 (stereo not shown) [DC68, (E)-1-(4-(4-(3,5-Dichlorophenyl)-5,5,5-trifluoropent-2-en-2-yl)phenyl)-1H-1,2,4-triazole]	–	–	A (50-100)	–
COC(/C=C/c1ccc(-n2cncn2)cc1)(c1cc(Cl)cc(Cl)c1)C(F)(F)F (stereo not shown) [DC70, (E)-1-(4-(3-(3,5-Dichlorophenyl)-4,4,4-trifluoro-3-methoxybut-1-en-1-yl)phenyl)-1H-1,2,4-triazole]	–	–	A (50-100)	–
